Common to all, as to format: biochemical
Experiment [1] deals with T1, KAT8 (Homo sapiens, UniProt Q9H7Z6).
T1 construct: using the previously purified KAT8 (173–458, 5 nM); 6xHis tag with TEV protease cleavage site (N, cleaved yes); made in house; host or cells: E. coli BL21(DE3)
T1 sequence (Q9H7Z6 173-458): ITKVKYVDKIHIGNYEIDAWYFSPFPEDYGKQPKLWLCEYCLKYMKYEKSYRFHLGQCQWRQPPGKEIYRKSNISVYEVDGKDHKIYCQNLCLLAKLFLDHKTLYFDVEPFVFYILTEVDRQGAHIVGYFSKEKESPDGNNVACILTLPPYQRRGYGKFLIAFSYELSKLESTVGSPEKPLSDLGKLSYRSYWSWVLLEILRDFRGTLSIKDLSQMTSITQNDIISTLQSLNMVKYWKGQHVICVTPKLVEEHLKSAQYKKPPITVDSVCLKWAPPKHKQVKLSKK
Put plainly: Radioactive KAT8 inhibition assay. The protocol:
Purified KAT8 was incubated with the relevant inhibitor (1% DMSO final) in a 2-fold serial dilution starting at 200 μM for 20 min at rt. Then, [^3H]Ac-CoA and biotinylated peptide were added to a total assay volume of 50 μL and the reaction mixture was incubated at rt for 4 h. The reaction was stopped, and the mixture was transferred to a 96-well streptavidin scintillant coated FlashPlate (Perkin Elmer) and incubated for 60 min at rt. The FlashPlate was washed with 0.1% Tween-20, and the liquid scintillation counting (MicroBeta Microplate Counter, Perkin Elmer) was employed to measure the radioactive signal. Experiments were performed in biological triplicates. Signal reduction compared to control was plotted (as inhibition percentage) as a function of compound concentration and fitted by nonlinear regression (GraphPad Prism 8.0) finally yielding the IC50 values.

Experiment [2] concerns the target T2, KAT3B (Homo sapiens, UniProt Q09472).
T2 construct: KAT3B (aa 1284–1672, 1 nM); purchased Reaction Biology Corporation
T2 sequence (Q09472 1284-1672): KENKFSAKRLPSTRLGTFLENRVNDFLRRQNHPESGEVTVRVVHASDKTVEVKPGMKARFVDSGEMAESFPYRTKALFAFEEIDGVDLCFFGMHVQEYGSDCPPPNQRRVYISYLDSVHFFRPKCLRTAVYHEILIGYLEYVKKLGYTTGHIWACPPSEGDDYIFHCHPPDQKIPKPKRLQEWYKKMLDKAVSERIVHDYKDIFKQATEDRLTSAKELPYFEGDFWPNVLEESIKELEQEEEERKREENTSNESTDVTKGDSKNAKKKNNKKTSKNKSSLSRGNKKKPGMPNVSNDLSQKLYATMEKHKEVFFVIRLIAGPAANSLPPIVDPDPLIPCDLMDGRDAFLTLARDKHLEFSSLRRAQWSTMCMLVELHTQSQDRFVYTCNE
Nature of the experiment: HotSpot KAT assay, KAT3B. The note with it: read-out: IC50 KAT3B (1 nM); enzyme 1 nM; NI = no inhibition at 200 μM; mean ± SD of three independent experiments. The method, then: The effects of the compounds on other KATs were determined using the HotSpot KAT assay (Reaction Biology Corporation, Malvern, PA, USA) according to the supplier’s procedure. […] Histone peptide acetylation was assessed by liquid scintillation counting using a Tri-Carb 2800TR Liquid Scintillation Analyzer (Perkin Elmer). Experiments were performed in biological triplicates. Signal reduction compared to control was plotted (as inhibition percentage) as a function of compound concentration. In cases in which an IC50 was calculated, the values were fitted by nonlinear regression (GraphPad Prism 8.0).

In experiment [3] the target is T3, KAT2B (Homo sapiens, UniProt Q92831).
T3 construct: KAT2B (aa 492–658, 25 nM); purchased Reaction Biology Corporation
T3 sequence (Q92831 492-658): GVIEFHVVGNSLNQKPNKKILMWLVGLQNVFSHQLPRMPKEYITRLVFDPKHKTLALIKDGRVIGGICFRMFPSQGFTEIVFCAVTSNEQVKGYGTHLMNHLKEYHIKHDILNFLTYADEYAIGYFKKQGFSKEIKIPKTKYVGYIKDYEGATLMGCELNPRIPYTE
Nature of the experiment: HotSpot KAT assay, KAT2B. The note with it: enzyme 25 nM; NI = no inhibition at 200 μM; mean ± SD of three independent experiments. The method, then:
The effects of the compounds on other KATs were determined using the HotSpot KAT assay (Reaction Biology Corporation, Malvern, PA, USA) according to the supplier’s procedure. The recombinant catalytic domains of human KAT2A (aa 323–837, 15 nM), KAT2B (aa 492–658, 25 nM), KAT3B (aa 1284–1672, 1 nM), KAT6A (aa 488–778, 10 nM), KAT6B (aa 657–1069, 10 nM), and full length human KAT5 (25 nM) and KAT7 (25 nM) were used. Each enzyme was incubated with the relevant histone peptide [H3 peptide for KAT2A, KAT2B, KAT3B, KAT6A, and KAT7 (2.5–5 μM, depending on the KAT isoform); H2A peptide for KAT5 (1.25 μM); H4 peptide for KAT6B (2.5 μM)] as a substrate and radio-isotope-labeled [^3H]Acetyl-CoA (0.2–1.5 μM, depending on the KAT isoform) as an acetyl donor in the assay buffer [50 mM Tris–HCl (pH 8.0), 50 mM NaCl, 0.1 mM EDTA, 1 mM DTT, 0.1 mM PMSF, 1% DMSO] for 1 h at 30 °C in the presence or absence of various compounds (1% DMSO final) titrated in a 2-fold serial dilution starting at 200 μM. Histone peptide acetylation was assessed by liquid scintillation counting using a Tri-Carb 2800TR Liquid Scintillation Analyzer (Perkin Elmer). Experiments were performed in biological triplicates. Signal reduction compared to control was plotted (as inhibition percentage) as a function of compound concentration. In cases in which an IC50 was calculated, the values were fitted by nonlinear regression (GraphPad Prism 8.0).

Setting [4] is: read-out: IC50 KAT8 (5 nM), enzyme 5 nM, 2-fold serial dilution from 200 μM, NI = no inhibition at 200 μM, mean ± SD of three independent experiments.

Each structure is given as a SMILES string. Read-outs that look alike come from different tables or passages of the source. Bounds are passed on as bounds.

As a reminder, the IC50 is the concentration that inhibits the measured activity by half. For `CC1=NN(c2ccc(C(=O)O)cc2)C(=O)C1` [Compound 18], the IC50 in experiment [1] (setting [4]) is more than 200 µM.
For the molecule `CC1=NN(c2ccc(C(=O)N(C)C)cc2)C(=O)/C1=C\c1ccc[nH]1` [Compound 38, (Z)-4-(4-((1H-Pyrrol-2-yl)methylene)-3-methyl-5-oxo-4,5-dihydro-1H-pyrazol-1-yl)-N,N-dimethylbenzamide], the values for the IC50 in experiment [1] (setting [4]), in experiment [2] and in experiment [3] were 29.5 ± 1.8 µM, more than 200 µM and more than 200 µM, respectively.
As to `CC1=NN(c2ccc(C(=O)O)cc2)C(=O)/C1=C(/C)c1ccc[nH]1` [Compound 30, (Z)-4-(4-(1-(1H-Pyrrol-2-yl)ethylidene)-3-methyl-5-oxo-4,5-dihydro-1H-pyrazol-1-yl)benzoic Acid], the IC50 was 19.4 ± 0.9 µM in experiment [1] (setting [4]), more than 200 µM in experiment [2] and more than 200 µM in experiment [3].
Regarding `CC1=NN(c2ccc(C(=O)O)cc2)C(=O)/C1=C\c1cc(C(=O)c2cccc(Cl)c2)c[nH]1` [Compound 6, (Z)-4-(4-((4-(3-Chlorobenzoyl)-1H-pyrrol-2-yl)methylene)-3-methyl-5-oxo-4,5-dihydro-1H-pyrazol-1-yl)benzoic Acid], the IC50 in experiment [1] (setting [4]) was more than 150 µM.
On the same count and under the same terms, for `CC1=NN(c2ccc(C(=O)O)cc2)C(=O)/C1=C\c1cc(C(=O)c2cccc(F)c2)c[nH]1` [Compound 9, (Z)-4-(4-((4-(3-Fluorobenzoyl)-1H-pyrrol-2-yl)methylene)-3-methyl-5-oxo-4,5-dihydro-1H-pyrazol-1-yl)benzoic Acid] the value was more than 200 µM.
The same measure, in the same setting: for `CC1=NN(c2ccc(C(=O)O)cc2)C(=O)/C1=C\c1cc(C(=O)c2cccc(C)c2)c[nH]1` [Compound 14, (Z)-4-(3-Methyl-4-((4-(3-methylbenzoyl)-1H-pyrrol-2-yl)4ethylene)-5-oxo-4,5-dihydro-1H-pyrazol-1-yl)benzoic Acid] the value was more than 200 µM.
Same read-out and setting: the value for `CC1=NN(c2ccccc2)C(=O)/C1=C\c1cc(C(=O)c2ccccc2[N+](=O)[O-])c[nH]1` [Compound 17, (Z)-5-Methyl-4-((4-(2-nitrobenzoyl)-1H-pyrrol-2-yl)methylene)-2-phenyl-2,4-dihydro-3H-pyrazol-3-one] was more than 200 µM; that for `CC1=NN(c2ccc(C(=O)O)cc2)C(=O)/C1=C\c1cc(C(=O)c2cccc([N+](=O)[O-])c2)c[nH]1` [Compound 3, (Z)-4-(3-Methyl-4-((4-(3-nitrobenzoyl)-1H-pyrrol-2-yl)methylene)-5-oxo-4,5-dihydro-1H-pyrazol-1-yl)benzoic Acid] was more than 150 µM; that for `CC1=NN(c2ccc(S(=O)(=O)O)cc2)C(=O)/C1=C\c1ccc[nH]1` [Compound 42, (Z)-4-(4-((1H-Pyrrol-2-yl)methylene)-3-methyl-5-oxo-4,5-dihydro-1H-pyrazol-1-yl)benzenesulfonic Acid] was 54.7 ± 4 µM.
Regarding `CC1=NN(c2ccc(C(=O)O)cc2)C(=O)/C1=C\c1cc(C(=O)c2ccccc2F)c[nH]1` [Compound 8, (Z)-4-(4-((4-(2-Fluorobenzoyl)-1H-pyrrol-2-yl)methylene)-3-methyl-5-oxo-4,5-dihydro-1H-pyrazol-1-yl)benzoic Acid], the IC50 in experiment [1] (setting [4]) is more than 150 µM.
On the same count and under the same terms, the value for `CC1=NN(c2ccc(C(=O)O)cc2)C(=O)/C1=C\c1cc(C(=O)c2ccccc2O)c[nH]1` [Compound 12, (Z)-4-(4-((4-(2-Hydroxybenzoyl)-1H-pyrrol-2-yl)methylene)-3-methyl-5-oxo-4,5-dihydro-1H-pyrazol-1-yl)benzoic Acid] was more than 200 µM; that for `CC1=NN(c2ccc(S(N)(=O)=O)cc2)C(=O)/C1=C\c1ccc[nH]1` [Compound 43, (Z)-4-(4-((1H-Pyrrol-2-yl)methylene)-3-methyl-5-oxo-4,5-dihydro-1H-pyrazol-1-yl)benzenesulfonamide] was 59.4 ± 3.7 µM.
Same read-out and setting: the value for `CC1=NN(c2ccc(C(=O)O)cc2)C(=O)/C1=C\c1cc(C(=O)c2ccc([N+](=O)[O-])cc2)c[nH]1` [Compound 4, (Z)-4-(3-Methyl-4-((4-(4-nitrobenzoyl)-1H-pyrrol-2-yl)methylene)-5-oxo-4,5-dihydro-1H-pyrazol-1-yl)benzoic Acid] was more than 200 µM; that for `CC1=NN(c2ccc(C(=O)O)cc2)C(=O)/C1=C\c1cc(C(=O)c2ccc(Cl)cc2)c[nH]1` [Compound 7, (Z)-4-(4-((4-(4-Chlorobenzoyl)-1H-pyrrol-2-yl)methylene)-3-methyl-5-oxo-4,5-dihydro-1H-pyrazol-1-yl)benzoic Acid] was more than 200 µM.
For the molecule `CC1=NN(c2ccc(C(=O)NCCO)cc2)C(=O)/C1=C\c1ccc[nH]1` [Compound 40, (Z)-4-(4-((1H-Pyrrol-2-yl)methylene)-3-methyl-5-oxo-4,5-dihydro-1H-pyrazol-1-yl)-N-(2-hydroxyethyl)benzamide], in experiment [1] (setting [4]), the IC50 amounted to 52.2 ± 3.2 µM.
The same measure, in the same setting: for `CC1=NN(c2ccc(C(=O)NCCCN3CCCC3)cc2)C(=O)/C1=C\c1ccc[nH]1` [Compound 41, (Z)-4-(4-((1H-Pyrrol-2-yl)methylene)-3-methyl-5-oxo-4,5-dihydro-1H-pyrazol-1-yl)-N-(3-(pyrrolidin-1-yl)propyl)benzamide] the value was more than 200 µM.
`CC(C)C1=NN(c2ccc(C(=O)O)cc2)C(=O)/C1=C\c1cc(C(=O)c2ccccc2[N+](=O)[O-])c[nH]1` [Compound 15, (Z)-4-(3-Isopropyl-4-((4-(2-nitrobenzoyl)-1H-pyrrol-2-yl)methylene)-5-oxo-4,5-dihydro-1H-pyrazol-1-yl)benzoic Acid]: the IC50 in experiment [1] was more than 150 µM; in experiment [3] it was more than 200 µM.
In the case of `COc1ccccc1C(=O)c1c[nH]c(/C=C2\C(=O)N(c3ccc(C(=O)O)cc3)N=C2C)c1` [Compound 10, (Z)-4-(4-((4-(2-Methoxybenzoyl)-1H-pyrrol-2-yl)methylene)-3-methyl-5-oxo-4,5-dihydro-1H-pyrazol-1-yl)benzoic Acid], the IC50 in experiment [1] is more than 150 µM.
As to `COc1cccc(C(=O)c2c[nH]c(/C=C3\C(=O)N(c4ccc(C(=O)O)cc4)N=C3C)c2)c1` [Compound 11, (Z)-4-(4-((4-(3-Methoxybenzoyl)-1H-pyrrol-2-yl)methylene)-3-methyl-5-oxo-4,5-dihydro-1H-pyrazol-1-yl)benzoic Acid], in experiment [1] (setting [4]), the IC50 was more than 200 µM.
On to `CC1=NN(c2ccccc2)C(=O)/C1=C\c1cc(C(=O)c2ccccc2)c[nH]1` [Compound 16, (Z)-4-((4-Benzoyl-1H-pyrrol-2-yl)methylene)-5-methyl-2-phenyl-2,4-dihydro-3H-pyrazol-3-one], for which the IC50 in experiment [1] (setting [4]) was more than 200 µM.

The values above are taken from paper PMC10226132, “First-in-Class Selective Inhibitors of the Lysine Acetyltransferase KAT8” (Journal of Medicinal Chemistry, 2023).
